# Data reported in patent publication US20240132484A1, “BROAD SPECTRUM ANTIVIRAL COMPOUNDS TARGETING THE SKI COMPLEX” (priority 2020, published 2024).
# Test system: Influenza virus
# Experiment: organism not typed
# Assay type: cell-based, influenza A virus
# Conditions: for Avg PFU/ml: average of first and second experiment; for Influenza virus titer, 10 μM / Influenza virus titer, 50 μM: upper part of table (FIG. 5 data); for Influenza virus titer, 10 μM / Influenza virus titer, 50 μM / Flu titer (pfu/ml): plaque assay
SMILES,first experiment (10 μM screen),second experiment (10 μM screen),Avg PFU/ml (10 μM screen),"Influenza virus titer, 10 μM",first experiment PFU/ml (50 μM screen),second experiment PFU/ml (50 μM screen),Avg PFU/ml (50 μM screen),"Influenza virus titer, 50 μM","Flu titer (pfu/ml) (1 μM compound, A549 cells)","Flu titer (pfu/ml) (10 μM compound, A549 cells)","Flu titer (pfu/ml) (50 μM compound, A549 cells)","antiviral activity against IAV infection (screening, A549 cells)"
COc1ccc(CNCCCn2ccnc2)c(OCC(O)CN2CCN(C)CC2)c1 (centres unmarked) [Compound 18-15],16000 PFU/ml,8000 PFU/ml,12000 PFU/ml,36000 PFU/virus/ml,70000 PFU/ml,1000 PFU/ml,35500 PFU/ml,30000 PFU/virus/ml,,,,
COCCCNCc1ccc(OC)cc1OCC(O)CN1CCN(C)CC1 (centres unmarked) [Compound 18-11],100000 PFU/ml,39000 PFU/ml,69500 PFU/ml,100000 PFU/virus/ml,160000 PFU/ml,31000 PFU/ml,95500 PFU/ml,160000 PFU/virus/ml,,,,
COc1ccc(CNCCc2ccccc2Cl)c(OCC(O)CN2CCN(C)CC2)c1 (centres unmarked) [Compound 18-4],7000 PFU/ml,800 PFU/ml,3900 PFU/ml,7000 PFU/virus/ml,1100 PFU/ml,300 PFU/ml,700 PFU/ml,1100 PFU/virus/ml,,,,
"CC#CC(=O)NCc1nc(-c2ccccc2NC(=O)CCOc2ccccc2)oc1C [Compound 17295424, N-[(5-methyl-2-{2-[(3-phenoxypropanoyl)amino]phenyl}-1,3-oxazol-4-yl)methyl]-2-butynamide]",,,,,,,,,44000 pfu/ml,68000 pfu/ml,64000 pfu/ml,
COc1ccc(CNCCCn2cccn2)c(OCC(O)CN2CCN(C)CC2)c1 (centres unmarked) [Compound 18-13],40000 PFU/ml,20000 PFU/ml,30000 PFU/ml,40000 PFU/virus/ml,80000 PFU/ml,110000 PFU/ml,95000 PFU/ml,80000 PFU/virus/ml,,,,
"Cc1ccc(-c2cc3c(c(OCC4CCCCO4)c2)OCCN(C(=O)C2CC2)C3)s1 (centres unmarked) [Compound 43261887, 4-(cyclopropylcarbonyl)-7-(5-methyl-2-thienyl)-9-(tetrahydro-2H-pyran-2-ylmethoxy)-2,3,4,5-tetrahydro-1,4-benzoxazepine]",,,,,,,,,60000 pfu/ml,170000 pfu/ml,30000 pfu/ml,
COc1ccc(CNCCCn2ccnc2C)c(OCC(O)CN2CCN(C)CC2)c1 (centres unmarked) [Compound 18-7],240000 PFU/ml,44000 PFU/ml,142000 PFU/ml,240000 PFU/virus/ml,110000 PFU/ml,31000 PFU/ml,70500 PFU/ml,110000 PFU/virus/ml,,,,
"COc1ccc(CNCCc2ccccc2F)c(OCC(O)CN2CCN(C)CC2)c1 (centres unmarked) [Compound 18-lead, 1-[2-({[2-(2-fluorophenyl)ethyl]amino}methyl)-5-methoxyphenoxy]-3-(4-methyl-1-piperazinyl)-2-propanol]",,,,2000 PFU/virus/ml,,,,1400 PFU/virus/ml,,,,
COc1ccc(CNCCc2ccccc2C)c(OCC(O)CN2CCN(C)CC2)c1 (centres unmarked) [UMB40],,,,,,,,,,,,showed a degree of antiviral activity
"O=C(CN1CC(c2ccccc2)CC1=O)NCc1nnc(SCC2CCCCC2)n1-c1ccc(F)cc1 (centres unmarked) [Compound 68125364, N-{[5-[(cyclohexylmethyl)thio]-4-(4-fluorophenyl)-4H-1,2,4-triazol-3-yl]methyl}-2-(2-oxo-4-phenyl-1-pyrrolidinyl)acetamide]",,,,,,,,,72000 pfu/ml,62000 pfu/ml,79000 pfu/ml,
COc1ccc(CNC2CCCCCCC2)c(OCC(O)CN2CCN(C)CC2)c1 (centres unmarked) [Compound 18-8],3000 PFU/ml,700 PFU/ml,1850 PFU/ml,3000 PFU/virus/ml,3800 PFU/ml,200 PFU/ml,2000 PFU/ml,38000 PFU/virus/ml,,,,
COc1ccc(CNCC2CCCCC2)c(OCC(O)CN2CCN(C)CC2)c1 (centres unmarked) [Compound 18-5],60000 PFU/ml,500 PFU/ml,30250 PFU/ml,60000 PFU/virus/ml,2100 PFU/ml,400 PFU/ml,1250 PFU/ml,2100 PFU/virus/ml,,,,
COc1ccc(CNCCc2ccccc2)c(OCC(O)CN2CCN(C)CC2)c1 (centres unmarked) [Compound 18-6],10000 PFU/ml,500 PFU/ml,5250 PFU/ml,10000 PFU/virus/ml,1300 PFU/ml,300 PFU/ml,800 PFU/ml,1300 PFU/virus/ml,,,,
"COC(=O)C1CCN(CC(O)COc2cccc(CN(C)Cc3cc(C)no3)c2)CC1 (centres unmarked) [Compound 62396835, methyl 1-{2-hydroxy-3-[3-({methyl[(3-methyl-5-isoxazolyl)methyl]amino}methyl)phenoxy]propyl}-4-piperidinecarboxylate]",,,,,,,,,66000 pfu/ml,71000 pfu/ml,30000 pfu/ml,
"OCCN(Cc1nc(Cc2cccc(C(F)(F)F)c2)no1)CC12CC3CC(CC(C3)C1)C2 [Compound 61121342, 2-[(1-adamantylmethyl)({3-[3-(trifluoromethyl)benzyl]-1,2,4-oxadiazol-5-yl}methyl)amino]ethanol]",,,,,,,,,9000 pfu/ml,130000 pfu/ml,50000 pfu/ml,
"COc1ccc(NC(=O)c2ccccc2OCC(=O)NC2CCCCC2)c([N+](=O)[O-])c1 [Compound 7900806, 2-[2-(cyclohexylamino)-2-oxoethoxy]-N-(4-methoxy-2-nitrophenyl)benzamide]",,,,,,,,,77000 pfu/ml,60000 pfu/ml,54000 pfu/ml,
COc1ccc(CNCCc2cccnc2)c(OCC(O)CN2CCCCCCC2)c1 (centres unmarked) [Compound 18-9],200000 PFU/ml,9000 PFU/ml,104500 PFU/ml,200000 PFU/virus/ml,20000 PFU/ml,2600 PFU/ml,11300 PFU/ml,20000 PFU/virus/ml,,,,
"OC(COc1ccccc1CNCc1cn2c(n1)SCC2)CN1CCSCC1 (centres unmarked) [Compound 32841411, 1-(2-{[(2,3-dihydroimidazo[2,1-b][1,3]thiazol-6-ylmethyl)amino]methyl}phenoxy)-3-(4-thiomorpholinyl)-2-propanol]",,,,,,,,,170000 pfu/ml,80000 pfu/ml,31000 pfu/ml,
"COc1ccc(CNCCc2ccccc2F)c(OCC(O)CN2CCN(C)CC2)c1 (centres unmarked) [Compound 96509034, 1-[2-({[2-(2-fluorophenyl)ethyl]amino}methyl)-5-methoxyphenoxy]-3-(4-methyl-1-piperazinyl)-2-propanol]",,,,,,,,,10000 pfu/ml,4000 pfu/ml,5000 pfu/ml,
COc1ccc(CNCCCSC)c(OCC(O)CN2CCCCCCC2)c1 (centres unmarked) [Compound 18-14],44000 PFU/ml,12000 PFU/ml,28000 PFU/ml,4400 PFU/virus/ml,80000 PFU/ml,1100 PFU/ml,40550 PFU/ml,80000 PFU/virus/ml,,,,
